Assays:
[1] = system: barnyardgrass (Echinochloa crus-galli); experiment: Test A preemergence, visual injury rating 0-100 (0 no effect, 100 complete control); type: in vivo; settings: for Barnyardgrass plant response rating (0 to 100 scale): 125 g ai/ha; for Barnyardgrass plant response rating: 500 g ai/ha, 0 to 100 scale
[2] = system: foxtail, green (green foxtail, Setaria viridis); experiment: Test A preemergence, visual injury rating 0-100; type: in vivo
kochia (Kochia scoparia) [3] = experiment: Test A preemergence, visual injury rating 0-100; type: in vivo
[4] = system: pigweed (Amaranthus retroflexus); experiment: Test A preemergence, visual injury rating 0-100; type: in vivo
[5] = system: ragweed (common ragweed, Ambrosia elatior); experiment: Test A preemergence, visual injury rating 0-100; type: in vivo
[6] = system: ryegrass, Italian (Italian ryegrass, Lolium multiflorum); experiment: Test A preemergence, visual injury rating 0-100; type: in vivo
[7] = system: barnyardgrass (Echinochloa crus-galli); experiment: Test A postemergence, visual injury rating 0-100; type: in vivo; settings: 0 to 100 scale
[8] = system: blackgrass (Alopecurus myosuroides); experiment: Test A postemergence, visual injury rating 0-100; type: in vivo; settings: 0 to 100 scale
corn (Zea mays) = experiment: Test A postemergence, visual injury rating 0-100; type: in vivo; settings: 0 to 100 scale
[9] = system: foxtail, green (green foxtail, Setaria viridis); experiment: Test A postemergence, visual injury rating 0-100; type: in vivo; settings: 0 to 100 scale
kochia (Kochia scoparia) [10] = experiment: Test A postemergence, visual injury rating 0-100; type: in vivo; settings: 0 to 100 scale
[11] = system: pigweed (Amaranthus retroflexus); experiment: Test A postemergence, visual injury rating 0-100; type: in vivo; settings: 0 to 100 scale
[12] = system: ragweed (common ragweed, Ambrosia elatior); experiment: Test A postemergence, visual injury rating 0-100; type: in vivo; settings: 0 to 100 scale
[13] = system: ryegrass, Italian (Italian ryegrass, Lolium multiflorum); experiment: Test A postemergence, visual injury rating 0-100; type: in vivo; settings: 0 to 100 scale
[14] = system: wheat (Triticum aestivum); experiment: Test A postemergence, visual injury rating 0-100; type: in vivo; settings: 0 to 100 scale
[15] = system: ducksalad (Heteranthera limosa); experiment: Test B flooded paddy test, visual rating 0-100; settings: Flood, 250 g ai/ha, applied to paddy water, rated after 13 to 15 days
[16] = system: barnyardgrass (Echinochloa crus-galli); experiment: Test B flooded paddy test, visual rating 0-100; settings: Flood, 250 g ai/ha, applied to paddy water, rated after 13 to 15 days
rice (Oryza sativa) = experiment: Test B flooded paddy test, visual rating 0-100 (0 no effect, 100 complete control); settings: Flood, 250 g ai/ha, applied to paddy water, rated after 13 to 15 days

CC1=[N+]([O-])C(C(=O)Nc2ccccc2S(C)(=O)=O)C(c2ccc(C(F)(F)F)cc2)C1 (racemic) [Compound 43]
Barnyardgrass plant response rating (0 to 100 scale) [1]: 20 | Barnyardgrass plant response rating [1]: 100 | Foxtail, Green plant response rating (0 to 100 scale) ([2]; 125 g ai/ha): 80 | Foxtail, Green plant response rating (0 to 100 scale) ([2]; 500 g ai/ha): 100 | Kochia plant response rating (0 to 100 scale) (kochia (Kochia scoparia) [3]; 125 g ai/ha): 0 | Kochia plant response rating (0 to 100 scale) (kochia (Kochia scoparia) [3]; 500 g ai/ha): 80 | Pigweed plant response rating (0 to 100 scale) ([4]; 125 g ai/ha): 40 | Pigweed plant response rating (0 to 100 scale) ([4]; 500 g ai/ha): 90 | Ragweed plant response rating (0 to 100 scale) ([5]; 125 g ai/ha): 0 | Ragweed plant response rating (0 to 100 scale) ([5]; 500 g ai/ha): 100 | Ryegrass, Italian plant response rating (0 to 100 scale) ([6]; 125 g ai/ha): 0 | Ryegrass, Italian plant response rating (0 to 100 scale) ([6]; 500 g ai/ha): 0 | Barnyardgrass plant response rating ([7]; 125 g ai/ha): 20 | Barnyardgrass plant response rating ([7]; 500 g ai/ha): 60 | Blackgrass plant response rating ([8]; 125 g ai/ha): 0 | Blackgrass plant response rating ([8]; 500 g ai/ha): 30 | Corn plant response rating (corn (Zea mays); 125 g ai/ha): 0 | Corn plant response rating (corn (Zea mays); 500 g ai/ha): 0 | Foxtail, Green plant response rating ([9]; 125 g ai/ha): 20 | Foxtail, Green plant response rating ([9]; 500 g ai/ha): 60 | Kochia plant response rating (kochia (Kochia scoparia) [10]; 125 g ai/ha): 0 | Kochia plant response rating (kochia (Kochia scoparia) [10]; 500 g ai/ha): 0 | Pigweed plant response rating ([11]; 125 g ai/ha): 0 | Pigweed plant response rating ([11]; 500 g ai/ha): 0 | Ragweed plant response rating ([12]; 125 g ai/ha): 0 | Ragweed plant response rating ([12]; 500 g ai/ha): 0 | Ryegrass, Italian plant response rating ([13]; 125 g ai/ha): 0 | Ryegrass, Italian plant response rating ([13]; 500 g ai/ha): 20 | Wheat plant response rating ([14]; 125 g ai/ha): 0 | Wheat plant response rating ([14]; 500 g ai/ha): 0 | Ducksalad plant response rating (0 to 100 scale) [15]: 0 | Barnyardgrass plant response rating (0 to 100 scale) [16]: 0 | Rice plant response rating (0 to 100 scale) (rice (Oryza sativa)): 0

CC1=[N+]([O-])C(C(=O)Nc2ccccc2[S+](C)[O-])C(c2ccc(C(F)(F)F)cc2)C1 (racemic) [Compound 44]
Barnyardgrass plant response rating (0 to 100 scale) [1]: 0 | Barnyardgrass plant response rating [1]: 70 | Foxtail, Green plant response rating (0 to 100 scale) ([2]; 125 g ai/ha): 0 | Foxtail, Green plant response rating (0 to 100 scale) ([2]; 500 g ai/ha): 100 | Kochia plant response rating (0 to 100 scale) (kochia (Kochia scoparia) [3]; 125 g ai/ha): 0 | Kochia plant response rating (0 to 100 scale) (kochia (Kochia scoparia) [3]; 500 g ai/ha): 0 | Pigweed plant response rating (0 to 100 scale) ([4]; 125 g ai/ha): 20 | Pigweed plant response rating (0 to 100 scale) ([4]; 500 g ai/ha): 90 | Ragweed plant response rating (0 to 100 scale) ([5]; 125 g ai/ha): 0 | Ragweed plant response rating (0 to 100 scale) ([5]; 500 g ai/ha): 80 | Ryegrass, Italian plant response rating (0 to 100 scale) ([6]; 125 g ai/ha): 0 | Ryegrass, Italian plant response rating (0 to 100 scale) ([6]; 500 g ai/ha): 0 | Barnyardgrass plant response rating ([7]; 125 g ai/ha): 0 | Barnyardgrass plant response rating ([7]; 500 g ai/ha): 0 | Blackgrass plant response rating ([8]; 125 g ai/ha): 0 | Blackgrass plant response rating ([8]; 500 g ai/ha): 20 | Corn plant response rating (corn (Zea mays); 125 g ai/ha): 0 | Corn plant response rating (corn (Zea mays); 500 g ai/ha): 0 | Foxtail, Green plant response rating ([9]; 125 g ai/ha): 0 | Foxtail, Green plant response rating ([9]; 500 g ai/ha): 30 | Kochia plant response rating (kochia (Kochia scoparia) [10]; 125 g ai/ha): 0 | Kochia plant response rating (kochia (Kochia scoparia) [10]; 500 g ai/ha): 10 | Pigweed plant response rating ([11]; 125 g ai/ha): 0 | Pigweed plant response rating ([11]; 500 g ai/ha): 20 | Ragweed plant response rating ([12]; 125 g ai/ha): 0 | Ragweed plant response rating ([12]; 500 g ai/ha): 0 | Ryegrass, Italian plant response rating ([13]; 125 g ai/ha): 0 | Ryegrass, Italian plant response rating ([13]; 500 g ai/ha): 0 | Wheat plant response rating ([14]; 125 g ai/ha): 0 | Wheat plant response rating ([14]; 500 g ai/ha): 0 | Ducksalad plant response rating (0 to 100 scale) [15]: 0 | Barnyardgrass plant response rating (0 to 100 scale) [16]: 0 | Rice plant response rating (0 to 100 scale) (rice (Oryza sativa)): 0

CC1=[N+]([O-])C(C(=O)Nc2ccc(F)cc2F)C(c2ccc(C(F)(F)F)cc2)C1 (racemic) [Compound 46]
Barnyardgrass plant response rating (0 to 100 scale) [1]: 70 | Barnyardgrass plant response rating [1]: 100 | Foxtail, Green plant response rating (0 to 100 scale) ([2]; 125 g ai/ha): 90 | Foxtail, Green plant response rating (0 to 100 scale) ([2]; 500 g ai/ha): 100 | Kochia plant response rating (0 to 100 scale) (kochia (Kochia scoparia) [3]; 125 g ai/ha): 0 | Kochia plant response rating (0 to 100 scale) (kochia (Kochia scoparia) [3]; 500 g ai/ha): 90 | Pigweed plant response rating (0 to 100 scale) ([4]; 125 g ai/ha): 50 | Pigweed plant response rating (0 to 100 scale) ([4]; 500 g ai/ha): 90 | Ragweed plant response rating (0 to 100 scale) ([5]; 125 g ai/ha): 0 | Ragweed plant response rating (0 to 100 scale) ([5]; 500 g ai/ha): 90 | Ryegrass, Italian plant response rating (0 to 100 scale) ([6]; 125 g ai/ha): 0 | Ryegrass, Italian plant response rating (0 to 100 scale) ([6]; 500 g ai/ha): 0 | Barnyardgrass plant response rating ([7]; 125 g ai/ha): 10 | Barnyardgrass plant response rating ([7]; 500 g ai/ha): 90 | Blackgrass plant response rating ([8]; 125 g ai/ha): 20 | Blackgrass plant response rating ([8]; 500 g ai/ha): 70 | Corn plant response rating (corn (Zea mays); 125 g ai/ha): 0 | Corn plant response rating (corn (Zea mays); 500 g ai/ha): 40 | Foxtail, Green plant response rating ([9]; 125 g ai/ha): 40 | Foxtail, Green plant response rating ([9]; 500 g ai/ha): 90 | Kochia plant response rating (kochia (Kochia scoparia) [10]; 125 g ai/ha): 0 | Kochia plant response rating (kochia (Kochia scoparia) [10]; 500 g ai/ha): 40 | Pigweed plant response rating ([11]; 125 g ai/ha): 0 | Pigweed plant response rating ([11]; 500 g ai/ha): 30 | Ragweed plant response rating ([12]; 125 g ai/ha): 0 | Ragweed plant response rating ([12]; 500 g ai/ha): 30 | Ryegrass, Italian plant response rating ([13]; 125 g ai/ha): 0 | Ryegrass, Italian plant response rating ([13]; 500 g ai/ha): 40 | Wheat plant response rating ([14]; 125 g ai/ha): 0 | Wheat plant response rating ([14]; 500 g ai/ha): 20 | Ducksalad plant response rating (0 to 100 scale) [15]: 100 | Barnyardgrass plant response rating (0 to 100 scale) [16]: 40 | Rice plant response rating (0 to 100 scale) (rice (Oryza sativa)): 20
